The text below walks through data of US11845770B2, “Ascaroside derivatives and methods of use” (California Institute of Technology, priority 2019, dated 2023).

In one data set the test system is human naïve T cells. The experiment in a line: Stimulation of blood derived naïve T cells with Der p1 (house dust mite) antigen. The format is cell-based. The conditions noted are these: human naïve T cells, Der p1 antigen 5 days; 0.1-100 μM; FIG. 14. The protocol: Naïve T cells from peripheral blood samples were collected and processed using MACSxpress® Whole Blood Pan T Cell Isolation Kit (Miltenyi Biotec), according to the manufacturer's protocol. Isolated naïve T cells were cultured in RPMI medium supplemented with 5% Fetal Bovine Serum (FBS) at 37° C. with 5% (v/v) CO2. T cells were seeded in 24 well plates at a density of 0.5×10^6 cells per well. The cells were pre-treated with the compounds (0, 0.1, 1.0, 10, 100 μM) for 1 hour prior to stimulation. Cells were stimulated with […] of Dermatophagoides pteronyssinus (Der p1) antigen. After 48 hours, fresh […] of Der p1 was added and continued incubating for a further 72 hours at 37° C. with 5% (v/v) CO2. Overall T cells were stimulated with […] of Der p1 antigen for 5 days before supernatants were collected and stored at −80° C. until quantitative detection assays are performed.
Human Interleukin-4 (IL-4), Interleukin-5 (IL-5), Interleukin-6 (IL-6), Interleukin-8 (IL-8), Interleukin-13 ([…]), Interleukin-23 (IL-23), and Interferon gamma (IFNγ) released from supernatants collected post stimulation were measured using Human Magnetic Luminex® Assay Kit. Human Transforming Growth Factor beta (TGFβ) was measured using an Enzyme-Linked Immunosorbent Assay (ELISA)-based analysis.

For a further data set, the target named is T1, CYP2C9 (Homo sapiens, UniProt P11712).
T1 construct: from tissue
The experiment in a line: 5 in 1 CYP inhibition assay, CYP2C9. In kind it is in vitro ADME. The conditions noted are these: microsomes, probe diclofenac (4′-hydroxylation), test compound 10 μM, n=2, read-out: inhibition of cytochrome P450 isoform 2C9. The procedure:
CYP450 dependent activities were determined using a marker substrate cocktail. For each reaction, enzyme activities in the presence and absence of test compound (10 μM) were measured in duplicate. A known inhibitor for each isoform, tested at a single concentration (3 μM, n=2), was included as positive control. Incubation mixtures containing microsomes, substrate, and standard inhibitor or test compound were warmed at 37° C. for 10 minutes. Reactions were initiated by addition of the NADPH and incubated for 10 min. [table] After incubation, ice cold acetonitrile was added to terminate the reaction. Generation of metabolites from the substrate reactions was determined by LC-MS/MS.

The next data set relates to Caco-2 cells. The experiment in a line: Bidirectional permeability in Caco-2 cells. In kind it is in vitro ADME. The settings on record: 2 μM, 2 hours. The protocol:
Caco-2 cells purchased from ATCC were seeded onto […] (PET) in 96-well BD Insert plates at 1×10^5 cells/cm^2, and the medium was refreshed every 4˜5 days until to the 21st to 28th day for formation of a confluent cell monolayer.
The transport buffer in the study was Hank's balanced salt solution (HBSS) with 10 mM HEPES at pH 7.40±0.05. Compound 1 was tested at 2 μM bi-directionally in duplicate. Digoxin was tested at 10 μM bi-directionally in duplicate, while nadolol and metoprolol were tested at 2 μM in A to B direction in duplicate. Final DMSO concentration was adjusted to less than 1%. […] Concentrations of compound 1 and […] in starting solution, donor solution, and receiver solution were quantified by LC/MS/MS methodologies, using peak area ratio of analyte/internal standard. […]
The apparent permeability coefficient Papp (cm/s) was calculated using the equation: Papp=(dCr/dt)×Vr/(A×C0) where dCr/dt is the cumulative concentration of compound in the receiver chamber as a function of time (μM/s); Vr is the solution volume in the receiver chamber (0.075 mL on the apical side, 0.25 mL on the basolateral side); A is the surface area for the transport, i.e. 0.0804 cm^2 for the area of the monolayer; Co is the initial concentration in the donor chamber (μM).
The efflux ratio was calculated using the equation: Efflux Ratio=Papp(BA)/Papp(AB) […]

The structures appear in SMILES notation.

T1 sequence (P11712 whole entry): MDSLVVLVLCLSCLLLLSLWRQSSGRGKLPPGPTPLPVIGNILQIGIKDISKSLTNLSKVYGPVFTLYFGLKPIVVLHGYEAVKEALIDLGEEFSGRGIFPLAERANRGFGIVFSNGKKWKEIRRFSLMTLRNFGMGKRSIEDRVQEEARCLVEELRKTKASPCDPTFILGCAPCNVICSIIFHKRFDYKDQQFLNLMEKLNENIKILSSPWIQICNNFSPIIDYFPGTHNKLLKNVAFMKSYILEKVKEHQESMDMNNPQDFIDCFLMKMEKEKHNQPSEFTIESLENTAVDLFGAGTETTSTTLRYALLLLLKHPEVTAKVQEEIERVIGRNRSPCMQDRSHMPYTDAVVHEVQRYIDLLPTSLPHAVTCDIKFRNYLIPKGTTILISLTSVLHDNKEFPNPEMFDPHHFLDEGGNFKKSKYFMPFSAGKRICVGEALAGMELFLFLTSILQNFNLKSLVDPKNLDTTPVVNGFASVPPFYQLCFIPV

Regarding `C[C@H](CC/C=C/C(=O)O)O[C@@H]1O[C@@H](C)[C@H](O)C[C@H]1O` [ascr #7, reference compound], in the data set on human naïve T cells, the “percent inhibition relative to Stimulated of IFNγ expression” value was “statistically significant, robust blocking”; the “percent inhibition relative to Stimulated of IL-5 expression” value is reported as “dose-dependent inhibition”; the “percent inhibition relative to Stimulated of TGFβ expression” value is reported as “slight attenuation”. At CYP2C9, the inhibition at 10 min, 10 µM is 0%. Also, the bidirectional permeability entry with Caco-2 cells is on record as “low bidirectional permeability”.
For `C[C@H](CC/C=C/C(=O)OC(C)(C)C)O[C@@H]1O[C@@H](C)[C@H](O)C[C@H]1O` [Compound 1, tert-butyl (2E,6R)-6-{[(2R,3R,5R,6S)-3,5-dihydroxy-6-methyloxan-2-yl]oxy}hept-2-enoate], in the data set on human naïve T cells, the “percent inhibition relative to Stimulated of IFNγ expression” value was “in a statistically significant, dose-dependent manner”; the “percent inhibition relative to Stimulated of IL-5 expression” value is given as “in a statistically significant, dose-dependent manner”; the “percent inhibition relative to Stimulated of TGFβ expression” value is on record as “in a statistically significant, dose-dependent manner”. Besides, the inhibition at 10 min, 10 µM at CYP2C9 turned out to be 4.3%. Moreover, in the data set with Caco-2 cells, the bidirectional permeability result was “high bidirectional permeability”.
